Experimental data as given in patent publication US8933094B2, “Ethynyl compounds useful for treatment of CNS disorder” (Hoffmann-La Roche Inc., priority 2009, dated 2015).

Target: T1, human mGlu5a receptor (Homo sapiens, UniProt P41594)
T1 construct: expressed in transfected cells
Assay: Intracellular Ca2+ mobilization assay (mGlu5 PAM)
Type: cell-based
Settings: for EC50: HEK-293 cells stably transfected with human mGlu5a, L-glutamate added at EC20 after 10-30 min pre-incubation with test compound, read-out: EC50 (nM) mGlu5PAM; for Emax: maximal response in % of the maximal stimulatory effect obtained with saturating concentrations of L-glutamate, read-out: Eff. (%)
Method: A monoclonal HEK-293 cell line stably transfected with a cDNA encoding for the human mGlu5a receptor was generated; for the work with mGlu5 Positive Allosteric Modulators (PAMs), a cell line with low receptor expression levels and low constitutive receptor activity was selected to allow the differentiation of agonistic versus PAM activity. Cells were cultured according to standard protocols (Freshney, 2000) in Dulbecco's Modified Eagle Medium with high glucose supplemented with 1 mM glutamine, 10% (vol/vol) heat-inactivated bovine calf serum, Penicillin/Streptomycin, 50 μg/ml hygromycin and 15 μg/ml blasticidin (all cell culture reagents and antibiotics from Invitrogen, Basel, Switzerland).
About 24 hrs before an experiment, 5×10^4 cells/well were seeded in poly-D-lysine coated, black/clear-bottomed 96-well plates. The cells were loaded with 2.5 μM Fluo-4AM in loading buffer (1×HBSS, 20 mM HEPES) for 1 hr at 37° C. and washed five times with loading buffer. The cells were transferred into a Functional Drug Screening System 7000 (Hamamatsu, Paris, France), and 11 half logarithmic serial dilutions of test compound at 37° C. were added and the cells were incubated for 10-30 min. with on-line recording of fluorescence. Following this pre-incubation step, the agonist L-glutamate was added to the cells at a concentration corresponding to EC20 (typically around 80 μM) with on-line recording of fluorescence; in order to account for day-to-day variations in the responsiveness of cells, the EC20 of glutamate was determined immediately ahead of each experiment by recording of a full dose-response curve of glutamate.
Responses were measured as peak increase in fluorescence minus basal (i.e. fluorescence without addition of L-glutamate), normalized to the maximal stimulatory effect obtained with saturating concentrations of L-glutamate. Graphs were plotted with the % maximal stimulatory using XLfit, a curve fitting program that iteratively plots the data using Levenburg Marquardt algorithm. The single site competition analysis equation used was y=A+((B−A)/(1+((x/C)D))), where y is the % maximal stimulatory effect, A is the minimum y, B is the maximum y, C is the EC50, x is the log 10 of the concentration of the competing compound and D is the slope of the curve (the Hill Coefficient). From these curves the EC50 (concentration at which half maximal stimulation was achieved), the Hill coefficient as well as the maximal response in % of the maximal stimulatory effect obtained with saturating concentrations of L-glutamate were calculated.
A depression of the signal observed after addition of the EC20 concentration of L-glutamate was indicative of an inhibitory activity of the test compound.

T1 sequence (P41594 21-1180 isoform P41594-2 limits assumed): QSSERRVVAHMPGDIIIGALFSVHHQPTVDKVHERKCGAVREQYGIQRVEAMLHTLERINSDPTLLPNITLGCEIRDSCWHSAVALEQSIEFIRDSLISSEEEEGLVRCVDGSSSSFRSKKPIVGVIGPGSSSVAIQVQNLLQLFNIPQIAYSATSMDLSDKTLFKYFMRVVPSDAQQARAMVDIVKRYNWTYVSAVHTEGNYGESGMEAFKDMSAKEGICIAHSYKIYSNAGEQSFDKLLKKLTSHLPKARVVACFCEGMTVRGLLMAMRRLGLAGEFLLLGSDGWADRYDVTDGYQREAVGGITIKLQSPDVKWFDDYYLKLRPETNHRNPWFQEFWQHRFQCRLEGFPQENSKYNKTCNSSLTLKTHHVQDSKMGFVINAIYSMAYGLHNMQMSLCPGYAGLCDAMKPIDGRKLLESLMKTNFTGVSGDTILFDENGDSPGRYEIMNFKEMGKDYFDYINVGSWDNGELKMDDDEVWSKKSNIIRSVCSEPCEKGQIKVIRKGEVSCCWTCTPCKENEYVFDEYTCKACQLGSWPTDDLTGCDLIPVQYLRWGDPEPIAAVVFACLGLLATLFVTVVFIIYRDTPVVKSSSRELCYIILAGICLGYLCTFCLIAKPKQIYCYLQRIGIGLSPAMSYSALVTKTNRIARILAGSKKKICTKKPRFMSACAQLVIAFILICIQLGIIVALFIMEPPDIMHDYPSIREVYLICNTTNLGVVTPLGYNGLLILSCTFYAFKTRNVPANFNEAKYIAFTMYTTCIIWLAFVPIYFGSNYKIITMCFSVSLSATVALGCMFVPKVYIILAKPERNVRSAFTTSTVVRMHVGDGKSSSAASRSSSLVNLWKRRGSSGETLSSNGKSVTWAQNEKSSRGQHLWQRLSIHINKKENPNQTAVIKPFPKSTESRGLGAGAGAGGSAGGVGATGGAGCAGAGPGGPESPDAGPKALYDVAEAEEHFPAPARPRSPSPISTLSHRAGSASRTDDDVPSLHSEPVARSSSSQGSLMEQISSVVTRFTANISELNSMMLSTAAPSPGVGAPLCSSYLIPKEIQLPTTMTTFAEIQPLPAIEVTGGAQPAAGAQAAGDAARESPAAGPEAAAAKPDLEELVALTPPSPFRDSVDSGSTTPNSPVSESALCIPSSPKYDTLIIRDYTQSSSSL

| EC50 [nM] | Emax [%] | SMILES |
| --- | --- | --- |
| 400 | 89 | CC(C)(C)c1cc2ncc(C#Cc3ccc(Cl)cc3)cn2n1 [Example 20, 2-tert-Butyl-6-(4-chloro-phenylethynyl)-pyrazolo[1,5-a]pyrimidine] |
| 100 | 68 | Cc1ccc(C#Cc2cnc3cc(C(C)(C)C)nn3c2)cc1 [Example 19, 2-tert-Butyl-6-p-tolylethynyl-pyrazolo[1,5-a]pyrimidine] |
| 39 | 65 | CC(C)(C)c1cc2ncc(C#Cc3cc(F)ccc3F)cn2n1 [Example 37, 2-tert-Butyl-6-(2,5-difluoro-phenylethynyl)-pyrazolo[1,5-a]pyrimidine] |
| 50 | 77 | C(#Cc1ccc2cnnn2c1)c1ccccc1 [Example 34, 6-Phenylethynyl-[1,2,3]triazolo[1,5-a]pyridine] |
| 45 | 93 | CC(C)(C)c1cc2ncc(C#Cc3ccc(F)c(F)c3)cn2n1 [Example 25, 2-tert-Butyl-6-(3,4-difluoro-phenylethynyl)-pyrazolo[1,5-a]pyrimidine] |
| 152 | 59 | CC(C)(O)c1cc2ncc(C#Cc3ccccc3)cn2n1 [Example 28, 2-(6-Phenylethynyl-pyrazolo[1,5-a]pyrimidin-2-yl)-propan-2-ol] |
| 14 | 37 | CC(C)(C)c1nc2ncc(C#Cc3cc(F)ccc3F)cn2n1 [Example 43, 2-tert-Butyl-6-(2,5-difluoro-phenylethynyl)-[1,2,4]triazolo[1,5-a]pyrimidine] |
| 18 | 53 | CC(C)c1cc2ncc(C#Cc3ccccc3)cn2n1 [Example 38, 2-Isopropyl-6-phenylethynyl-pyrazolo[1,5-a]pyrimidine] |
| 58 | 84 | Cc1cccc(C#Cc2cnc3nc(N4CCOCC4)nn3c2)c1 [Example 48, 2-Morpholin-4-yl-6-m-tolylethynyl-[1,2,4]triazolo[1,5-a]pyrimidine] |
| 255 | 98 | CC(C)(C)c1cc2ncc(C#Cc3ccc(N)nc3)cn2n1 [Example 22, 5-(2-tert-Butyl-pyrazolo[1,5-a]pyrimidin-6-ylethynyl)-pyridin-2-ylamine] |
| 4 | 37 | CC(C)(C)c1cc2ncc(C#Cc3ccncc3)cn2n1 [Example 14, 2-tert-Butyl-6-pyridin-4-ylethynyl-pyrazolo[1,5-a]pyrimidine] |
| 66 | 88 | CC(C)(CO)c1nc2ccc(C#Cc3ccccc3)cn2n1 [Example 40, 2-Methyl-2-(6-phenylethynyl-[1,2,4]triazolo[1,5-a]pyridin-2-yl)-propan-1-ol] |
| 7 | 75 | CC(C)(C)c1cc2ncc(C#Cc3ccc(F)cc3)cn2n1 [Example 12, 2-tert-Butyl-6-(4-fluoro-phenylethynyl)-pyrazolo[1,5-a]pyrimidine] |
| 70 | 116 | C(#Cc1cnc2ccnn2c1)c1ccccc1 [Example 1, 6-Phenylethynyl-pyrazolo[1,5-a]pyrimidine] |
| 78 | 74 | Cc1cc2ncc(C#Cc3ccc(F)cc3)cn2n1 [Example 5, 6-(4-Fluoro-phenylethynyl)-2-methyl-pyrazolo[1,5-a]pyrimidine] |
| 42 | 77 | Cc1cc2ncc(C#Cc3cccc(F)c3)cn2n1 [Example 4, 6-(3-Fluoro-phenylethynyl)-2-methyl-pyrazolo[1,5-a]pyrimidine] |
| 47 | 81 | Cc1cc2ncc(C#Cc3ccccc3F)cn2n1 [Example 3, 6-(2-Fluoro-phenylethynyl)-2-methyl-pyrazolo[1,5-a]pyrimidine] |
| 50 | 101 | Fc1cccc(C#Cc2cnc3nc(N4CCOCC4)nn3c2)c1 [Example 49, 6-(3-Fluoro-phenylethynyl)-2-morpholin-4-yl-[1,2,4]triazolo[1,5-a]pyrimidine] |
| 183 | 77 | CC(C)(C)c1cc2ncc(C#Cc3ccc(Cl)nc3)cn2n1 [Example 21, 2-tert-Butyl-6-(6-chloro-pyridin-3-ylethynyl)-pyrazolo[1,5-a]pyrimidine] |
| 32 | 122 | CC(C)(C)c1cc2ccc(C#Cc3ccccc3)cn2n1 [Example 41, 2-tert-Butyl-6-phenylethynyl-pyrazolo[1,5-a]pyridine] |

| EC50 [nM] | Emax [%] | SMILES |
| --- | --- | --- |
| 136 | 88 | C(#Cc1ccc2ccnn2c1)c1ccccc1 [Example 33, 6-Phenylethynyl-pyrazolo[1,5-a]pyridine] |
| 69 | 119 | C(#Cc1cnc2nc(N3CCOCC3)nn2c1)c1ccccc1 [Example 47, 2-Morpholin-4-yl-6-phenylethynyl-[1,2,4]triazolo[1,5-a]pyrimidine] |
| 33 | 88 | CC(C)(C)c1cc2ncc(C#Cc3cccnc3)cn2n1 [Example 13, 2-tert-Butyl-6-pyridin-3-ylethynyl-pyrazolo[1,5-a]pyrimidine] |
| 498 | 82 | Cc1cc2ncc(C#Cc3ccncc3)cn2n1 [Example 6, 2-Methyl-6-pyridin-4-ylethynyl-pyrazolo[1,5-a]pyrimidine] |
| 49 | 99 | Cc1cc2ncc(C#Cc3ccccc3)cn2n1 [Example 2, 2-Methyl-6-phenylethynyl-pyrazolo[1,5-a]pyrimidine] |
| 56 | 141 | C(#Cc1cnc2nc(N3CCCC3)nn2c1)c1ccccc1 [Example 51, 6-Phenylethynyl-2-pyrrolidin-1-yl-[1,2,4]triazolo[1,5-a]pyrimidine] |
| 34 | 59 | CC(C)(C)c1cc2ncc(C#Cc3cncc(Cl)c3)cn2n1 [Example 23, 2-tert-Butyl-6-(5-chloro-pyridin-3-ylethynyl)-pyrazolo[1,5-a]pyrimidine] |
| 104 | 41 | COc1cccc(C#Cc2cnc3cc(C(C)(C)C)nn3c2)c1 [Example 17, 2-tert-Butyl-6-(3-methoxy-phenylethynyl)-pyrazolo[1,5-a]pyrimidine] |
| 41 | 99 | CC(C)(C)c1cc2ncc(C#Cc3ccc(N)cc3)cn2n1 [Example 27, 4-(2-tert-Butyl-pyrazolo[1,5-a]pyrimidin-6-ylethynyl)-phenylamine] |
| 9 | 85 | CC(C)(C)c1nc2ncc(C#Cc3cccc(F)c3)cn2n1 [Example 44, 2-tert-Butyl-6-(3-fluoro-phenylethynyl)-[1,2,4]triazolo[1,5-a]pyrimidine] |
| 161 | 61 | CC(C)(C)c1cc2ncc(C#Cc3cncc(F)c3)cn2n1 [Example 29, 2-tert-Butyl-6-(5-fluoro-pyridin-3-ylethynyl)-pyrazolo[1,5-a]pyrimidine] |
| 181 | 68 | CC(C)(C)c1cc2ncc(C#Cc3cncnc3)cn2n1 [Example 24, 2-tert-Butyl-6-pyrimidin-5-ylethynyl-pyrazolo[1,5-a]pyrimidine] |
| 274 | 123 | C(#Cc1ccc2ncnn2c1)c1ccccc1 [Example 31, 6-Phenylethynyl-[1,2,4]triazolo[1,5-a]pyridine] |
| 182 | 102 | C(#Cc1cnc2cc(C3CCC3)nn2c1)c1ccccc1 [Example 18, 2-Cyclobutyl-6-phenylethynyl-pyrazolo[1,5-a]pyrimidine] |
| 100 | 50 | Cc1cccc(C#Cc2cnc3cc(C(C)(C)C)nn3c2)c1 [Example 16, 2-tert-Butyl-6-m-tolylethynyl-pyrazolo[1,5-a]pyrimidine] |
| 5 | 75 | CC(C)(C)c1cc2ncc(C#Cc3ccccc3)cn2n1 [Example 9, 2-tert-Butyl-6-phenylethynyl-pyrazolo[1,5-a]pyrimidine] |
| 148 | 69 | Cc1cc2ncc(C#Cc3ccc(Cl)cc3)cn2n1 [Example 8, 6-(4-Chloro-phenylethynyl)-2-methyl-pyrazolo[1,5-a]pyrimidine] |
| 132 | 73 | Cc1ccc(C#Cc2cnc3cc(C)nn3c2)cc1 [Example 7, 2-Methyl-6-p-tolylethynyl-pyrazolo[1,5-a]pyrimidine] |
| 47 | 49 | CC(C)(C)c1nc2ncc(C#Cc3cncc(Cl)c3)cn2n1 [Example 46, 2-tert-Butyl-6-(5-chloro-pyridin-3-ylethynyl)-[1,2,4]triazolo[1,5-a]pyrimidine] |
